The first experiment addresses GST tagged IRAK-4 (Homo sapiens (Human), UniProt Q9NWZ3). The experiment in a line: IRAK-4 Kinase Assay (IMAP fluorescence polarization). It is filed as biochemical. The note with it: 100 μM ATP, 30 minutes at 25° C. In outline:
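Activity was read by IMAP fluorescence polarization, where phosphopeptide binding to M(III) nanoparticles raises FP. The 30-minute, 25° C reaction used 100 μM ATP, 100 nM RP7030 substrate and 0.5 nM GST-IRAK-4 in pH 7.2 Tris buffer with MgCl2, DTT and Tween 20.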
Sequence of GST tagged IRAK-4 (Q9NWZ3 whole entry): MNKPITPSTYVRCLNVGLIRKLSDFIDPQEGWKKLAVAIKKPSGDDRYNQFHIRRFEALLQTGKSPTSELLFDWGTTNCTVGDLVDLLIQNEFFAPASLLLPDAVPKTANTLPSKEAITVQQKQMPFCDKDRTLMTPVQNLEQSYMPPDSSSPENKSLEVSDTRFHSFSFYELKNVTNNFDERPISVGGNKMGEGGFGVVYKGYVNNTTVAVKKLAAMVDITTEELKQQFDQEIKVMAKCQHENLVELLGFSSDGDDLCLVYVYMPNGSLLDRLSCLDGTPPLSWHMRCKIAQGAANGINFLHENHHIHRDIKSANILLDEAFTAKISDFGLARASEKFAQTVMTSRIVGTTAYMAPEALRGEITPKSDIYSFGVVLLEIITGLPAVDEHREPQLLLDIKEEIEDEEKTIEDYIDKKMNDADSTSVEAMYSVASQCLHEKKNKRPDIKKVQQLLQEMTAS
`CCS(=O)(=O)c1ccc(-c2cc(NC(=O)c3cnn4cccnc34)n(-c3ccc(C)cc3)n2)cc1` [Example 352, N-{3-[4-(ethylsulfonyl)phenyl]-1-(4-methylphenyl)-1H-pyrazol-5-yl}pyrazolo[1,5-a]pyrimidine-3-carboxamide] had an IC50 of less than 0.1 µM. On to `Cc1ccc(-n2nc(-c3ccc(S(=O)(=O)N(C)C)cc3)cc2NC(=O)c2cnn3cccnc23)cc1` [Example 353, N-{3-[4-(dimethylsulfamoyl)phenyl]-1-(4-methylphenyl)-1H-pyrazol-5-yl}pyrazolo[1,5-a]pyrimidine-3-carboxamide], for which the IC50 is less than 0.1 µM. Consider `Cc1ccc(-n2nc(-c3ccnc(N)c3)cc2NC(=O)c2cnn3cccnc23)cc1` [Example 355, N-[3-(2-aminopyridin-4-yl)-1-(4-methylphenyl)-1H-pyrazol-5-yl]pyrazolo[1,5-a]pyrimidine-3-carboxamide], for which the IC50 was less than 0.1 µM. Turning to `Cc1ccc(-n2nc(C3CCN(S(=O)(=O)c4sc(C)nc4C)CC3)cc2NC(=O)c2cnn3cccnc23)cc1` [Example 364, N-[3-{1-[(2,4-dimethyl-1,3-thiazol-5-yl)sulfonyl]piperidin-4-yl}-1-(4-methylphenyl)-1H-pyrazol-5-yl]pyrazolo[1,5-a]pyrimidine-3-carboxamide], the half-inhibitory concentration (IC50) is less than 0.1 µM.

For the compound `Cc1ccc(-n2nc(C3CCN(S(=O)(=O)C(C)C)CC3)cc2NC(=O)c2cnn3cccnc23)cc1` [Example 368, N-[3-{1-[(1-methylethyl)sulfonyl]piperidin-4-yl}-1-(4-methylphenyl)-1H-pyrazol-5-yl]pyrazolo[1,5-a]pyrimidine-3-carboxamide], the half-inhibitory concentration (IC50) is less than 0.1 µM.

Still in this experiment, the particulars now being: 100 μM ATP, 30 minutes at 25° C.; μM.
`CNC(=O)c1cccc(-c2cc(NC(=O)c3cnn4cccnc34)n(-c3ccc(C)cc3)n2)c1` [Example 350, N-{3-[3-(methylcarbamoyl)phenyl]-1-(4-methylphenyl)-1H-pyrazol-5-yl}pyrazolo[1,5-a]pyrimidine-3-carboxamide] came in with a 50% inhibitory concentration (IC50) of less than 1 µM. Still for that read-out and setting: for `Cc1ccc(-n2nc(-c3ccc(S(C)(=O)=O)nc3)cc2NC(=O)c2cnn3cccnc23)cc1` [Example 351, N-{1-(4-methylphenyl)-3-[6-(methylsulfonyl)pyridin-3-yl]-1H-pyrazol-5-yl}pyrazolo[1,5-a]pyrimidine-3-carboxamide] the value was less than 1 µM; for `Cc1ccc(-n2nc(C3=CC(=O)N(C)CC3)cc2NC(=O)c2cnn3cccnc23)cc1` [Example 354, N-[3-(1-methyl-6-oxo-1,2,3,6-tetrahydropyridin-4-yl)-1-(4-methylphenyl)-1H-pyrazol-5-yl]pyrazolo[1,5-a]pyrimidine-3-carboxamide], less than 1 µM.

With `Cc1ccc(-n2nc(C3CCN(S(=O)(=O)Cc4noc5ccccc45)CC3)cc2NC(=O)c2cnn3cccnc23)cc1` [Example 356, N-[3-{1-[(1,2-benzisoxazol-3-ylmethyl)sulfonyl]piperidin-4-yl}-1-(4-methylphenyl)-1H-pyrazol-5-yl]pyrazolo[1,5-a]pyrimidine-3-carboxamide], the IC50 is less than 1 µM.

In turn, `Cc1ccc(-n2nc(C3CCN(S(=O)(=O)c4cccc5ccccc45)CC3)cc2NC(=O)c2cnn3cccnc23)cc1` [Example 357, N-{1-(4-methylphenyl)-3-[1-(naphthalen-1-ylsulfonyl)piperidin-4-yl]-1H-pyrazol-5-yl}pyrazolo[1,5-a]pyrimidine-3-carboxamide] yielded an IC50 of less than 1 µM. For the compound `Cc1ccc(-n2nc(C3CCN(S(=O)(=O)Cc4ccncc4)CC3)cc2NC(=O)c2cnn3cccnc23)cc1` [Example 358, N-[1-(4-methylphenyl)-3-{1-[(pyridin-4-ylmethyl)sulfonyl]piperidin-4-yl}-1H-pyrazol-5-yl]pyrazolo[1,5-a]pyrimidine-3-carboxamide], the half-maximal inhibitory concentration (IC50) is less than 1 µM. Still for that read-out and setting: under `COc1ccc(S(=O)(=O)N2CCC(c3cc(NC(=O)c4cnn5cccnc45)n(-c4ccc(C)cc4)n3)CC2)cc1OC` [Example 359, N-[3-{1-[(3,4-dimethoxyphenyl)sulfonyl]piperidin-4-yl}-1-(4-methylphenyl)-1H-pyrazol-5-yl]pyrazolo[1,5-a]pyrimidine-3-carboxamide] stands less than 1 µM.

In the case of `Cc1ccc(-n2nc(C3CCN(S(=O)(=O)c4cc(F)cc(F)c4)CC3)cc2NC(=O)c2cnn3cccnc23)cc1` [Example 360, N-[3-{1-[(3,5-difluorophenyl)sulfonyl]piperidin-4-yl}-1-(4-methylphenyl)-1H-pyrazol-5-yl]pyrazolo[1,5-a]pyrimidine-3-carboxamide], the 50% inhibitory concentration (IC50) was less than 1 µM.

With `CCCS(=O)(=O)N1CCC(c2cc(NC(=O)c3cnn4cccnc34)n(-c3ccc(C)cc3)n2)CC1` [Example 361, N-{1-(4-methylphenyl)-3-[1-(propylsulfonyl)piperidin-4-yl]-1H-pyrazol-5-yl}pyrazolo[1,5-a]pyrimidine-3-carboxamide], the 50% inhibitory concentration (IC50) was less than 1 µM. `Cc1ccc(-n2nc(C3CCN(S(=O)(=O)c4ccccc4C#N)CC3)cc2NC(=O)c2cnn3cccnc23)cc1` [Example 362, N-[3-{1-[(2-cyanophenyl)sulfonyl]piperidin-4-yl}-1-(4-methylphenyl)-1H-pyrazol-5-yl]pyrazolo[1,5-a]pyrimidine-3-carboxamide]: the IC50 is less than 1 µM. In the case of `Cc1ccc(-n2nc(C3CCN(S(=O)(=O)CCC(F)(F)F)CC3)cc2NC(=O)c2cnn3cccnc23)cc1` [Example 363, N-[1-(4-methylphenyl)-3-{1-[(3,3,3-trifluoropropyl)sulfonyl]piperidin-4-yl}-1H-pyrazol-5-yl]pyrazolo[1,5-a]pyrimidine-3-carboxamide], the half-maximal inhibitory concentration (IC50) was less than 1 µM.

In the case of `Cc1ccc(-n2nc(C3CCN(S(=O)(=O)c4ccc(F)c(F)c4)CC3)cc2NC(=O)c2cnn3cccnc23)cc1` [Example 365], the IC50 is less than 1 µM. `Cc1ccc(-n2nc(C3CCN(S(=O)(=O)c4ccc(F)cc4)CC3)cc2NC(=O)c2cnn3cccnc23)cc1` [Example 366, N-[3-{1[(4-fluorophenyl)sulfonyl]piperidin-4-yl}-1-(4-methylphenyl)-1H-pyrazol-5-yl]pyrazolo[1,5-a]pyrimidine-3-carboxamide] had an IC50 of less than 1 µM.

`COc1ccc(S(=O)(=O)N2CCC(c3cc(NC(=O)c4cnn5cccnc45)n(-c4ccc(C)cc4)n3)CC2)cc1` [Example 367, N-[3-{1-[(4-methoxyphenyl)sulfonyl]piperidin-4-yl}-1-(4-methylphenyl)-1H-pyrazol-5-yl]pyrazolo[1,5-a]pyrimidine-3-carboxamide]: the half-inhibitory concentration (IC50) was less than 1 µM.

`CCCCS(=O)(=O)N1CCC(c2cc(NC(=O)c3cnn4cccnc34)n(-c3ccc(C)cc3)n2)CC1` [Example 369, N-{3-[1-(butylsulfonyl)piperidin-4-yl]-1-(4-methylphenyl)-1H-pyrazol-5-yl}pyrazolo[1,5-a]pyrimidine-3-carboxamide] registered an IC50 of less than 1 µM.

`Cc1ccc(-n2nc(C3CCN(S(=O)(=O)c4ccc(F)cc4F)CC3)cc2NC(=O)c2cnn3cccnc23)cc1` [Example 370, N-[3-{1-[(2,4-difluorophenyl)sulfonyl]piperidin-4-yl}-1-(4-methylphenyl)-1H-pyrazol-5-yl]pyrazolo[1,5-a]pyrimidine-3-carboxamide] gave an IC50 of less than 1 µM.
